Source: article PMC2363230, “Human tumour-associated cell adhesion protein MN/CA IX: identification of M75 epitope and of the region mediating cell adhesion” (British Journal of Cancer, 2000)

biological target: T1, M75 epitope of immobilized GST-MN (Homo sapiens, UniProt Q16790); experiment: Competition ELISA, peptides binding to the epitope of immobilized GST-MN (Figure 4A); details: nonapeptides 7 + 2 aa, C-terminal alanine amide
T1 construct: made in house; host or cells: bacteria

Row | Substance | activity in competition ELISA of phage display-selected peptides (in words)
1 | 3: ASASAPVSA, selected from phage display library on peptide F, eluted with M75 [compound 3] | marginally posi- tive
2 | 2: AITFNAQYA, selected from phage display library on peptide F, eluted with M75 [compound 2] | highest activity
3 | 1: AKKMKRRKA, selected from phage display library on peptide F, eluted with M75 [compound 1] | less active

tested on: adhesion of CGL1 cells to MN/CA IX; experiment: Inhibition of cell adhesion to MN/CA IX dots by oligopeptides added to the media with the cell suspension (Figure 4B); format: cell-based, human; details: nonapeptides 7 + 2 aa, C-terminal alanine amide, absorbance at 630 nm of stained attached cells

Row | Substance | activity in cell adhesion inhibition of phage display-selected peptides (in words)
4 | 3: ASASAPVSA, selected from phage display library on peptide F, eluted with M75 [compound 3] | marginally posi- tive only in ELISA
5 | 2: AITFNAQYA, selected from phage display library on peptide F, eluted with M75 [compound 2] | highest activity
6 | 1: AKKMKRRKA, selected from phage display library on peptide F, eluted with M75 [compound 1] | less active

tested on: mAb M75; experiment: Competition ELISA with mAb M75 (antigen competing for M75, Figure 3); format: binding; details: GST-MN 10 ng ml-1 adsorbed; mAb M75 ascites fluid final dilution 10-6; antibody + antigen mixtures adsorbed 1.5 h; peroxidase/OPD read-out

Row | Substance | 50% inhibition concentration in competition ELISA with M75 [ng/mL]
7 | D: GGSSGEDDPLGEEDLPSEEDSPC (aa 51-72 of the PG region) | 1
8 | F: EDPPGEEDLPGEEDLPGEEDLPEVC (aa 75-98 of the PG region) | 1

same assay, conditions: GST-MN adsorbed; mAb M75 ascites 10-6

Row | Substance | serological activity in competition ELISA with M75 (in words)
9 | EVKPKSEEEGSLKLE [Peptide G] | inactive
10 | N: oligopeptide 7 + 2 aa APGEEDLPA | minimum serologically active sequence

same assay, conditions: compared with peptides D and F (50% inhibition at 1 ng ml-1)

Row | Substance | fold less active than peptides D and F in competition ELISA [x]
11 | GEEDLPSEEDSPREEDPPGEEDLPGEC [Peptide E] | 1000

same assay, conditions: peptide at 100 g ml-1 (so in the source); C-terminal amide

Row | Substance | competition in ELISA with M75 at 100 g ml-1
12 | ALPGEEDLA [oligopeptide 7 + 2 aa] | negative
13 | AEEDLPGEA [oligopeptide 7 + 2 aa] | negative
14 | APGEEDLA [6 + 2 aa permutation] | negative
15 | AGEEDLPA [6 + 2 aa permutation] | negative
16 | ADLPGEEA [6 + 2 aa permutation] | negative
17 | AEDLPGEA [6 + 2 aa permutation] | negative
18 | AEDLPGEEA [oligopeptide 7 + 2 aa] | negative
19 | ALPGEEDA [6 + 2 aa permutation] | negative
20 | AEEDLPGA [6 + 2 aa permutation] | negative
21 | ADLPGEEDA [oligopeptide 7 + 2 aa] | negative
